The numbers were not newly measured in patent publication EP3466870B1, “SURFACE-MODIFIED SODIUM HYPOCHLORITE PENTAHYDRATE CRYSTAL, AND METHOD FOR PRODUCING SAME” (Nippon Light Metal Company, Ltd., priority 2016, dated 2017), which cites them from elsewhere.

By pKa is commonly meant the negative logarithm of the acid dissociation constant.

The conditions of this data set: in water at 25°C.

Read-outs that look alike come from different tables or passages of the source.

`O=C(O)C(=O)O` [oxalic acid]: the pKa (first value listed) was 1.04 and the pKa (second value listed) is recorded as 3.82.

As for `O=C(O)O` [carbonic acid], the pKa by setting is: (first value listed) 6.11; (second value listed) 9.87.
